Measured values reported in patent US20170087108A1, “METHODS OF IMPROVING PHYSIOLOGICAL CONDITIONS RELATED TO PREGNANCY THROUGH DIETARY SUPPLEMENTATION” (Natural Alternatives International, Inc., priority 2015, published 2017).

How the values were obtained:
pigs [1] = conditions: Example 2: supplementation of female pigs during pregnancy; vs no supplementation and vs carnosine
Text: (§1) Beta-alanine will be used as a dietary supplement for pigs and chickens.
(§2) Beta-alanine supplementation will be provided to female pigs and female chickens during pregnancy. Beta-alanine will be provided in dosages provided in concentrations and/or percentages for times described in this disclosure. Controls will be provided. Controls will include a group of female pigs and female chickens given no additional supplementation beyond those currently administered during pig and chicken pregnancies. Another control group will be provided with supplementation with carnosine provided in dosages provided in concentrations and/or percentages for times described in this disclosure.

chickens = conditions: Example 2: supplementation of female chickens during pregnancy; vs no supplementation and vs carnosine
Text: as §1, §2

pigs [2] = test: Dietary supplementation of female pigs: survivability and live births per litter; assay type: in vivo; conditions: vs no supplementation and vs carnosine
Text: Beta-alanine will be used as a dietary supplement for pigs.
as §2, with “pigs” for “pigs and female chickens”, “pig” for “pig and chicken”, “carnosine at” for “carnosine provided in”
(§3) Beta-alanine supplementation will be provided to female pigs prior to and during pregnancy. Beta-alanine will be provided in dosages provided in concentrations and/or percentages for times described in this disclosure. Controls will be provided. Controls will include a group of female pigs given no additional supplementation beyond those currently administered during pig pregnancies. Another control group will be provided with supplementation with carnosine at dosages provided in concentrations and/or percentages for times described in this disclosure.
as §3, with “starting from breeding age through” for “prior to and during”
as §3, with “from birth through” for “prior to and during”

[3] = taken as a free amino acid; some individuals; cited from earlier work
[4] = Example 1: supplementation during pregnancy
[5] = Example 3: supplementation prior to and during pregnancy
[6] = Example 4: supplementation from breeding age through pregnancy
[7] = Example 5: supplementation from birth through pregnancy

NCCC(=O)O [beta-alanine]
early development rate for piglets (pigs [1]): improves | early development rate for chicks (chickens): improves | amount of live births per litter (pigs [2]; [4]): improves | survivability (pigs [2]; [4]): improves | amount of live births per litter (pigs [2]; [5]): improves | survivability (pigs [2]; [5]): improves | amount of live births per litter (pigs [2]; [6]): improves | survivability (pigs [2]; [6]): improves | amount of live births per litter (pigs [2]; [7]): improves | survivability (pigs [2]; [7]): improves | duration of flushing/tingling of the skin [3]: less than 60 minutes
